Values joined by “and” are separate entries in the source; they are usually repeats but may differ in a detail not shown here. Identical values can stand only once. “Also recorded” adds a separate entry of the source.
Tests used:
Format in all cases: in vivo, human
[1] = test system: EGFR-mutated locally advanced or metastatic NSCLC; test: MARIPOSA Phase 3, progression-free survival by BICR; details: for Median progression-free survival (95% CI): median follow-up 22.0 months
Source text: The primary endpoint of the study is PFS (using RECIST v1.1 guidelines) as assessed by blinded independent central review (BICR).

[2] = test system: EGFR-mutated locally advanced or metastatic NSCLC; test: MARIPOSA Phase 3, duration of response by BICR
[3] = test system: EGFR-mutated locally advanced or metastatic NSCLC; test: MARIPOSA Phase 3, objective response by BICR (RECIST v1.1)
[4] = test system: EGFR-mutated locally advanced or metastatic NSCLC; test: MARIPOSA Phase 3, extracranial progression-free survival by BICR; details: CNS-only first progression censored
Source text: The efficacy population included all patients who had undergone randomization. Extracranial progression-free survival was defined as time from randomization to disease progression (detected by extracranial scans) or death. If first progression was detected solely in the CNS, these patients were censored at the time of CNS disease progression. The dashed lines indicate the median extracranial progression-free survival in the two groups; tick marks indicate censoring of data. 95% CI widths have not been adjusted for multiplicity and cannot be used to infer definitive treatment effects. CNS denotes central nervous system. Since MARIPOSA performed serial brain imaging, a sensitivity analysis was conducted censoring CNS-only, first progression events.

[5] = test system: EGFR-mutated locally advanced or metastatic NSCLC; test: MARIPOSA Phase 3, overall survival; details: for Median overall survival (95% CI): interim analysis
[6] = test system: EGFR-mutated locally advanced or metastatic NSCLC; test: MARIPOSA Phase 3, time to symptomatic progression (TTSP)
Ex19del and L858R ctDNA = test: MARIPOSA Phase 3, EGFRm ctDNA in blood by ddPCR; details: patients with matched samples
Procedure: Detection of circulating tumor (ctDNA) and co-mutations were analyzed by next-generation sequencing (NGS) of blood at baseline.
Detection of ctDNA and co-mutations were analyzed by next-generation sequencing (NGS) of blood at baseline. Detection and clearance of Ex19del and L858R ctDNA in blood were analyzed with ddPCR at baseline and C3D1.
Detectable EGFRm ctDNA at Baseline and On Treatment: Detection and clearance of Ex19del and L858R ctDNA in the blood were analyzed by ddPCR (Ex19del or L858R by Biodesix ddPCR).

[7] = test system: EGFR-mutated locally advanced or metastatic NSCLC; test: MARIPOSA Phase 3, time to subsequent therapy (TTST) and subsequent therapy
[8] = test system: EGFR-mutated NSCLC with brain metastasis; test: MARIPOSA Phase 3, intracranial PFS by BICR in participants with history of brain metastasis
Source text: • 1. […] Intracranial PFS [Time Frame: Up to approximately 42 months]. […] Incidence and Severity of Adverse Events (AEs) [Time Frame: Up to approximately 60 months]. Incidence and severity of treatment emergent adverse events (TEAEs) will be reported. Any adverse event occurring at or after the initial administration of study treatment through the day of last dose plus 30 days, or until the start of subsequent anticancer therapy (if earlier), is considered to be treatment emergent. • 8. Number of Participants with Clinical Laboratory Abnormalities [Time Frame: Up to approximately 60 months]. Number of participants with clinical laboratory abnormalities (serum chemistry, hematology, blood coagulation, and urine samples) will be reported. • 9. Number of Participants with Vital Signs Abnormalities [Time Frame: Up to approximately 60 months]. Number of participants with vital signs abnormalities (temperature, heart rate, respiratory rate, oxygen saturation, blood pressure) will be reported. • 10. Number of Participants with Physical Examination Abnormalities [Time Frame: Up to approximately 60 months]. Number of participants with physical examination abnormalities will be reported. • 11. […] Number of Participants with Anti-Amivantamab Antibodies [Time Frame: Up to approximately 42 months]. […] Change from Baseline in Non-Small Cell Lung Cancer-Symptom Assessment Questionnaire (NCSLC-SAQ) [Time Frame: Baseline Up to approximately 42 months]. The NSCLC-SAQ contains 7 items that assess cough, pain, dyspnea, fatigue, and poor appetite over a 7-day recall period. Each multi-item scale and individual item will be summarized using count and percent by visit. • 15. Change from Baseline in European Organization of Research and Treatment of Cancer Quality of Life Questionnaire Core 30 (EORTC-QLQ-C30) [Time Frame: Baseline Up to approximately 42 months]. EORTC-QLQ-C30 is a core 30-item questionnaire for evaluating the health-related quality of life (HRQOL) of participants participating in cancer clinical studies. • 16.

[9] = test system: EGFR-mutated locally advanced or metastatic NSCLC; test: MARIPOSA Phase 3, progression-free survival after first subsequent therapy (PFS2)
Source text: The efficacy population included all patients who had undergone randomization. Tick marks indicate censoring of data. […]

SMILES: C=CC(=O)Nc1cc(Nc2nccc(-c3cn(C)c4ccccc34)n2)c(OC)cc1N(C)CCN(C)C [Osimertinib]
- PFS 6-month event-free rate (95% CI) [1]: 0.85 (0.83, 0.88)
- PFS 18-month event-free rate (95% CI) [1]: 0.48 (0.43, 0.53)
- PFS 24-month event-free rate (95% CI) [1]: 0.34 (0.26, 0.39)
- PFS 30-month event-free rate (95% CI) [1]: 0.30 (0.24, 0.36)
- Censored (PFS) ([1]; Full Analysis Set): 177 (41.3%) (%)
- Event (PFS) ([1]; Full Analysis Set): 252 (58.7%) (%)
- PFS time to event, 25th percentile (95% CI) ([1]; Full Analysis Set): 9.23 (7.49, 10.94) months
- PFS time to event, 75th percentile (95% CI) ([1]; Full Analysis Set): NE (27.50, NE)
- Progression-free survival, Patients (95% CI) at 12 months ([1]; efficacy population): 65 (60-69) %
- Progression-free survival, Patients (95% CI) at 18 months ([1]; efficacy population): 48 (43-53) %
- Progression-free survival, Patients (95% CI) at 24 months ([1]; efficacy population): 34 (28-39) %
- Median progression-free survival (95% CI) [1]: 16.59 (14.78, 18.46) months
- Median progression-free survival (95% CI) ([1]; listed as osimertinib): 16.6 months and 16.59 months
- Response duration, Median (95% CI) among all responders [2]: 14.9 (12.9-17.5) mo
- Response duration, Median (95% CI) among confirmed responders [2]: 16.8 (14.8-18.5) mo
- Censored (DOR) ([2]; confirmed responders): 151 (48.1%) (%)
- DOR time to event, 25th percentile (95% CI) ([2]; confirmed responders): 9.26 (9.13, 10.25) months
- Duration of response >=6 months ([2]; confirmed responders): 267 (65.0%) (%)
- Duration of response >=12 months ([2]; confirmed responders): 181 (57.6%) (%)
- Duration of response >=18 months ([2]; confirmed responders): 86 (27.4%) (%)
- Duration of response >=24 months ([2]; confirmed responders): 21 (6.7%) (%)
- Event (DOR) ([2]; confirmed responders): 163 (51.9%) (%)
- Median duration of response (95% CI) ([2]; confirmed responders): 16.76 (14.75, 18.53) months
- DOR time to event, 75th percentile (95% CI) ([2]; confirmed responders, NE = not estimable): NE (NE, NE)
- Median duration of response (95% CI) ([2]; confirmed responders, listed as osimertinib): 16.8 months
- Confirmed Responders (Confirmed CR + Confirmed PR) ([2]; number of patients, measurable disease at baseline): 314
- Best overall response: Not evaluable [3]: 11 (3) no. (%)
- Best overall response: Progressive disease [3]: 11 (3) no. (%)
- Best overall response: Stable disease [3]: 42 (10) no. (%)
- Best overall response: Complete response ([3]; all responders): 15 (4) no. (%)
- Best overall response: Partial response ([3]; all responders): 335 (81) no. (%)
- Complete Response (CR) ([3]; best overall response): 15 (3.0%) (%)
- Not Evaluable (NE) ([3]; best overall response): 11 (2.7%) (%)
- Partial Response (PR) ([3]; best overall response): 335 (80.9%) (%)
- Progressive Disease (PD) ([3]; best overall response): 11 (2.7%) (%)
- Objective response rate, Patients (95% CI), all responders ([3]; measurable disease at baseline): 85 (81-88) %
- Objective response, Patients (95% CI) including only confirmed responders ([3]; measurable disease at baseline): 76 (71-80) %
- Objective response rate (CR + PR) ([3]; measurable disease at baseline, RECIST v1.1): 350 (84.5%) (%)
- Objective response rate, Patients (95% CI), all responders ([3]; measurable disease at baseline, listed as osimertinib): 85%
- Median extracranial progression-free survival (95% CI) [4]: 18.4 months
- Censored (OS) ([5]; Full Analysis Set): 312 (72.7%) (%)
- Event (OS) ([5]; Full Analysis Set): 117 (27.3%) (%)
- OS 6-month event-free rate (95% CI) ([5]; Full Analysis Set): 0.96 (0.93, 0.97)
- OS 12-month event-free rate (95% CI) ([5]; Full Analysis Set): 0.88 (0.85, 0.91)
- OS 18-month event-free rate (95% CI) ([5]; Full Analysis Set): 0.79 (0.75, 0.83)
- OS 30-month event-free rate (95% CI) ([5]; Full Analysis Set): 0.62 (0.52, 0.70)
- OS time to event, 25th percentile (95% CI) ([5]; Full Analysis Set): 20.30 (18.00, 23.59) months
- OS time to event, 75th percentile (95% CI) ([5]; NE = not estimable): NE (NE, NE)
- Overall survival, Patients (95% CI) at 12 months ([5]; efficacy population): 88 (85-91) %
- Overall survival, Patients (95% CI) at 18 months ([5]; efficacy population): 79 (75-83) %
- Overall survival, Patients (95% CI) at 24 months ([5]; efficacy population): 69 (64-74) %
- Median overall survival (95% CI) ([5]; NE = not estimable): NE (NE, NE)
- Median overall survival (95% CI) ([5]; NE = not estimable, listed as osimertinib): not reached; also recorded: could not be estimated
- Censored (TTSP) ([6]; Full Analysis Set): 202 (61.1%) (%)
- Death without Symptomatic PD ([6]; Full Analysis Set): 49 (11.4%) (%)
- Event (TTSP) ([6]; Full Analysis Set): 167 (38.9%) (%)
- Symptomatic PD ([6]; Full Analysis Set): 118 (27.5%) (%)
- TTSP 6-month event-free rate (95% CI) ([6]; Full Analysis Set): 0.90 (0.87, 0.93)
- TTSP 12-month event-free rate (95% CI) ([6]; Full Analysis Set): 0.79 (0.74, 0.82)
- TTSP 18-month event-free rate (95% CI) ([6]; Full Analysis Set): 0.67 (0.63, 0.72)
- TTSP 24-month event-free rate (95% CI) ([6]; Full Analysis Set): 0.59 (0.53, 0.64)
- TTSP 30-month event-free rate (95% CI) ([6]; Full Analysis Set): 0.49 (0.40, 0.58)
- TTSP Median (95% CI) ([6]; NE = not estimable): 29.31 (29.31, NE) months
- TTSP time to event, 75th percentile (95% CI) ([6]; NE = not estimable): NE (NE, NE)
- Detectable EGFRm ctDNA at C3D1 (Week 9) (Ex19del and L858R ctDNA): 15%
- Censored (TTST) ([7]; Full Analysis Set): 232 (54.1%) (%)
- Event (TTST) ([7]; Full Analysis Set): 197 (45.9%) (%)
- TTST 6-month event-free rate (95% CI) ([7]; Full Analysis Set): 0.91 (0.88, 0.93)
- TTST 12-month event-free rate (95% CI) ([7]; Full Analysis Set): 0.77 (0.73, 0.81)
- TTST 18-month event-free rate (95% CI) ([7]; Full Analysis Set): 0.63 (0.58, 0.67)
- TTST Median (95% CI) ([7]; Full Analysis Set): 24.08 (22.01, 28.98) months
- TTST time to event, 25th percentile (95% CI) ([7]; Full Analysis Set): 13.11 (10.58, 14.36) months
- TTST time to event, 75th percentile (95% CI) ([7]; NE = not estimable): NE (NE, NE)
- Event (intracranial PFS) [8]: 75 (43.6%) (%)
- Intracranial PFS 6-month event-free rate (95% CI) [8]: 0.88 (0.82, 0.92)
- Intracranial PFS time to event, 75th percentile (95% CI) ([8]; NE = not estimable): NE (NE, NE)
- Censored (PFS2) ([9]; Full Analysis Set): 299 (60.7%) (%)
- Event (PFS2) ([9]; Full Analysis Set): 130 (30.3%) (%)
- PFS2 6-month event-free rate (95% CI) ([9]; Full Analysis Set): 0.95 (0.93, 0.97)
- PFS2 18-month event-free rate (95% CI) ([9]; Full Analysis Set): 0.76 (0.71, 0.80)
- PFS2 30-month event-free rate (95% CI) ([9]; Full Analysis Set): 0.56 (0.46, 0.66)
- PFS2 Median (95% CI) ([9]; Full Analysis Set): NE (29.31, NE)
- PFS2 time to event, 25th percentile (95% CI) ([9]; Full Analysis Set): 18.40 (15.93, 20.50) months
- PFS2 time to event, 75th percentile (95% CI) ([9]; NE = not estimable): NE (NE, NE)
